Experimental data from patent US20200131669A1, “CYCLIC PEPTIDE COMPOUND HAVING HIGH MEMBRANE PERMEABILITY, AND LIBRARY CONTAINING SAME” (Chugai Seiyaku Kabushiki Kaisha, priority 2017, published 2020).
Starred links: 1 amine or outer side, 2 acyl side, 3 side chain; linkers in the order of their positions; H or OH if unused. Positions of bridges follow the written chain, without caps; N, C: chain ends. Non-standard residues stand in square brackets, D forms with d. Residues, ends and D or L forms follow the SMILES beside them. *: point of attachment. X4 = O=C([C@@H]1C[C@@H](N2CCC(F)(F)CC2)CN1[*:1])[*:2]; Phe(4-CF3) = N[C@@H](Cc1ccc(C(F)(F)F)cc1)C(=O)O; NMeAla(4-thiazolyl) = CN[C@@H](Cc1cscn1)C(=O)O; NMePhe(3-Cl) = CN[C@@H](Cc1cccc(Cl)c1)C(=O)O; hPhe(3-Cl) = N[C@@H](CCc1cccc(Cl)c1)C(=O)O; Tyr(3-F) = N[C@@H](Cc1ccc(O)c(F)c1)C(=O)O; NMeW = CN[C@@H](Cc1c[nH]c2ccccc12)C(=O)O; hNle(7,7-F2) = N[C@@H](CCCCC(F)F)C(=O)O; X9 = O=C(CN(CCOc1ccccc1)[*:1])[*:2]; Hyp = O=C(O)[C@@H]1C[C@@H](O)CN1; NMeF = CN[C@@H](Cc1ccccc1)C(=O)O; NMeGABA = CN(CCCC(=O)[*:2])[*:1]; dNMeF = CN[C@H](Cc1ccccc1)C(=O)O; hPhe = N[C@@H](CCc1ccccc1)C(=O)O; NMeD = CN[C@@H](CC(=O)O)C(=O)O; NMeL = CN[C@@H](CC(C)C)C(=O)O; Propyl(2R-OH) = C[C@@H](O)C*; NMeV = CN[C@H](C(=O)O)C(C)C; NMeAbu = CC[C@H](NC)C(=O)O; NMeA = CN[C@@H](C)C(=O)O; Piperidide = C1CCN(*)CC1; Abu = CC[C@H](N)C(=O)O; CH2CMe2OH = CC(C)(O)C*; NBuGly = CCCCNCC(=O)O; Isopentyl = CC(C)CC*; NPrGly = CCCNCC(=O)O; Sar = CNCC(=O)O; tBu = CC(C)(C)*

experiment: Caco-2 membrane permeability, improved method as used in the following Examples (96-well, 20 to 24 h preincubation); assay type: in vitro ADME; conditions: human, Caco-2, Caco-2
Description: In the following Examples, membrane permeability was measured in accordance with the improved method established as described above. Specifically, Caco-2 cells were cultured on a 96-well Transwell for three weeks, after which DMEM+FaSSIF (1% DMSO)+compound were added to the apical side and DMEM was added to the basal side, and the cells were preincubated at 5% CO2, 37° C., and 80 rpm for 20 to 24 hours. Following the preincubation, measurement of membrane permeability was initiated by removing the preincubation solution on the apical and basal sides by suction, washing the membrane, and adding FaSSIF/HBSS buffer (1% DMSO) (pH 6.0) containing the compound to the apical side and HBSS buffer (4% BSA) (pH 7.4) to the basal side. Each well was shaken at 5% CO2, 37° C., and 80 rpm, and 180 minutes after the initiation, the sample on the basal side was collected and the permeation amount was measured by LC/MS. The membrane permeability coefficient (Papp) was calculated from the permeation amount. Herein, the terms “Caco-2 (cm/sec)” in the columns in the tables and “Papp (cm/sec)” are used in the same meaning.

In order of rising Papp A→B at 180 min:
1. CCCCN1CC(=O)N(C)[C@H](Cc2ccccc2)C(=O)N(C)[C@@H](CC(C)C)C(=O)N[C@@H](COC(C)(C)C)C(=O)N(C)[C@@H](CC(C)C)C(=O)N[C@H](C(=O)N2CCCCC2)CC(=O)N(C)CC(=O)N(C)[C@@H](Cc2ccccc2)C(=O)N[C@@H](C(C)C)C(=O)N(C)[C@@H](CC(C)C)C(=O)N[C@@H](COC[C@@H](C)O)C1=O [pd496] ([Sar][NMeF]V[NMeL]S(Propyl(2R-OH))[NBuGly][dNMeF][NMeL]S(tBu)[NMeL]D-Piperidide; lactam N-11)  1 ×10⁻⁶ cm/s
2. CC(C)C[C@H]1C(=O)N[C@@H](COC(C)(C)C)C(=O)N(C)[C@@H](Cc2ccccc2)C(=O)N(C)[C@@H](CC(C)C)C(=O)N[C@H](C(=O)N2CCCCC2)CC(=O)N2C[C@H](N3CCC(F)(F)CC3)C[C@H]2C(=O)N(C)[C@@H](Cc2cccc(Cl)c2)C(=O)N[C@@H](C(C)C)C(=O)N(C)[C@@H](C(C)C)C(=O)N[C@@H]([C@@H](C)O)C(=O)N(C)CC(=O)N1C [pd458] ([X4][NMePhe(3-Cl)]V[NMeV]T[Sar][NMeL]S(tBu)[NMeF][NMeL]D-Piperidide; lactam N-11)  1.2 ×10⁻⁶ cm/s
3. CC[C@@H]1NC(=O)[C@H](Cc2ccccc2)N(C)C(=O)[C@H](CC(C)C)N(C)C(=O)[C@H](CC(C)C)NC(=O)[C@H](CC)N(C)C(=O)C[C@@H](C(=O)N2CCCCC2)NC(=O)[C@H](CC(C)C)N(C)C(=O)CN(C)C(=O)[C@H]([C@@H](C)O)NC(=O)CN(CCOc2ccccc2)C(=O)[C@H](CC(C)C)N(C)C1=O [pd424] ([NMeAbu]L[NMeL][NMeF][Abu][NMeL][X9]T[Sar][NMeL]D-Piperidide; lactam N-11)  1.2 ×10⁻⁶ cm/s
4. CCCN1CC(=O)N(C)[C@@H](Cc2cccc(Cl)c2)C(=O)N(C)[C@@H](CC(C)C)C(=O)N[C@@H](COC(C)(C)C)C(=O)N(C)[C@@H](CC(C)C)C(=O)N[C@H](C(=O)N2CCCCC2)CC(=O)N(C)CC(=O)N(C)[C@@H](Cc2ccccc2)C(=O)N[C@@H](COCC(C)(C)O)C(=O)N(C)[C@@H](CC(C)C)C(=O)N[C@@H]([C@@H](C)O)C1=O [pd430] ([Sar][NMeF]S(CH2CMe2OH)[NMeL]T[NPrGly][NMePhe(3-Cl)][NMeL]S(tBu)[NMeL]D-Piperidide; lactam N-11)  1.3 ×10⁻⁶ cm/s
5. CC[C@H](C)[C@H]1C(=O)N[C@@H]([C@@H](C)O)C(=O)N(C)CC(=O)N(C)[C@@H](CC(C)C)C(=O)N[C@H](C(=O)N2CCCCC2)CC(=O)N(C)[C@@H](C)C(=O)NC(COc2cccc(Cl)c2)C(=O)N(C)[C@@H](CC(C)C)C(=O)N(C)[C@@H](Cc2ccccc2)C(=O)N[C@@H](C)C(=O)N(C)[C@@H](Cc2ccccc2)C(=O)N1C (some centres unmarked) [pd344]  1.3 ×10⁻⁶ cm/s
6. CC(C)C[C@H]1NC(=O)C[C@@H](C(=O)N2CCCCC2)NC(=O)[C@H](C)N(C)C(=O)[C@H](CC(C)C)N(C)C(=O)[C@H](COC(C)(C)C)NC(=O)[C@H](CC(C)C)N(C)C(=O)CN(C)C(=O)[C@H]([C@@H](C)O)NC(=O)[C@H](CC(C)C)N(C)C(=O)[C@H](CCc2ccccc2)NC(=O)[C@H](Cc2ccccc2)N(C)C1=O [pd314] ([dL][NMeF][hPhe][NMeL]T[Sar][NMeL]S(tBu)[NMeL][NMeA]D-Piperidide; lactam N-11)  1.4 ×10⁻⁶ cm/s
7. CC(C)CCOC[C@@H]1NC(=O)[C@H](CC(C)C)N(C)C(=O)[C@H](Cc2ccccc2)N(C)C(=O)CN(C)C(=O)[C@H]([C@@H](C)O)NC(=O)[C@H](CC(C)C)N(C)C(=O)[C@H](CCCCC(F)F)NC(=O)[C@H](Cc2ccccc2)N(C)C(=O)CN(C)C(=O)C[C@@H](C(=O)N2CCCCC2)NC(=O)[C@H](CC(C)C)N(C)C1=O [pd338] ([Sar][NMeF][hNle(7,7-F2)][NMeL]T[Sar][NMeF][NMeL]S(Isopentyl)[NMeL]D-Piperidide; lactam N-11)  1.8 ×10⁻⁶ cm/s
8. CCO[C@@H]1C[C@H]2C(=O)N(C)[C@@H](CC(C)C)C(=O)N[C@@H]([C@@H](C)O)C(=O)N(C)[C@@H](Cc3ccccc3)C(=O)N[C@@H](Cc3ccccc3)C(=O)N(C)[C@@H](CC(C)C)C(=O)N(C)[C@H](C(=O)N3CCCCC3)CC(=O)N[C@@H](C)C(=O)N(C)[C@@H](C(C)C)C(=O)N[C@@H](COC(C)(C)C)C(=O)N(C)[C@@H](CC(C)C)C(=O)N2C1 [pd373] (A[NMeV]S(tBu)[NMeL][Hyp](Et)[NMeL]T[NMeF]F[NMeL][NMeD]-Piperidide; lactam N-11)  2 ×10⁻⁶ cm/s
9. CC(C)C[C@@H]1NC(=O)[C@H](CC(C)C)N(C)C(=O)CN(C)C(=O)[C@H]([C@@H](C)O)NC(=O)[C@H](CC(C)C)N(C)C(=O)[C@H](CCc2cccc(Cl)c2)NC(=O)[C@H](C)N(C)C(=O)[C@@H](C(C)C)NC(=O)C[C@@H](C(=O)N2CCCCC2)NC(=O)[C@H](C(C)C)N(C)C(=O)[C@H](Cc2ccccc2)N(C)C1=O [pd355] ([dV][NMeA][hPhe(3-Cl)][NMeL]T[Sar][NMeL]L[NMeF][NMeV]D-Piperidide; lactam N-11)  2.3 ×10⁻⁶ cm/s

same assay, conditions: human, Caco-2, Caco-2 (cm/sec)

In order of rising Papp A→B at 180 min:
1. CC(C)C[C@@H]1NC(=O)[C@H]([C@@H](C)O)NC(=O)[C@H](CC(C)C)N(C)C(=O)C[C@@H](C(=O)N2CCCCC2)NC(=O)[C@H](COC(C)(C)C)NC(=O)[C@H](Cc2ccccc2)NC(=O)[C@H](C)N(C)C(=O)[C@H](Cc2ccccc2)NC(=O)CN(C)C(=O)[C@H](Cc2ccccc2)N(C)C(=O)[C@H](Cc2ccccc2)N(C)C1=O [pd245] ([NMeL]TL[NMeF][NMeF][Sar]F[NMeA]FS(tBu)D-Piperidide; lactam N-11)  0.019 ×10⁻⁶ cm/s
2. CC[C@H](C)[C@@H]1NC(=O)[C@H](Cc2ccccc2)N(C)C(=O)[C@H](C)N(C)C(=O)C[C@@H](C(=O)N(C)[C@@H](Cc2ccccc2)C(=O)N(C)[C@@H](Cc2ccccc2)C(=O)N[C@@H](C)C(=O)N2CCCCC2)NC(=O)[C@H](CC(C)C)N(C)C(=O)[C@H](Cc2ccccc2)N(C)C(=O)[C@H]([C@@H](C)O)NC(=O)[C@H](CC(C)C)N(C)C(=O)[C@H](CC(C)C)N(C)C(=O)[C@H](C)N(C)C1=O [pd240] ([NMeA][NMeF]I[NMeA][NMeL][NMeL]T[NMeF][NMeL]D[NMeF][NMeF]A-Piperidide; lactam N-10)  0.06 ×10⁻⁶ cm/s
3. CC(C)C[C@H]1C(=O)N[C@H](C(=O)N2CCCCC2)CC(=O)N(C)CCCC(=O)N(C)[C@@H](CC(C)C)C(=O)N[C@@H](Cc2ccc(O)c(F)c2)C(=O)N(C)[C@@H](CC(C)C)C(=O)N(C)[C@@H](Cc2ccccc2)C(=O)N[C@@H](COC(C)(C)C)C(=O)N(C)[C@@H](CC(C)C)C(=O)N[C@@H]([C@@H](C)O)C(=O)N(C)CC(=O)N1C [pd114] ([NMeGABA][NMeL][Tyr(3-F)][NMeL][NMeF]S(tBu)[NMeL]T[Sar][NMeL]D-Piperidide; lactam N-11)  0.17 ×10⁻⁶ cm/s
4. CC[C@H](C)[C@@H]1NC(=O)[C@H](CC(C)C)N(C)C(=O)CCCN(C)C(=O)C[C@@H](C(=O)N2CCCCC2)NC(=O)[C@H](CC(C)C)N(C)C(=O)[C@H](CC(C)C)N(C)C(=O)[C@H]([C@@H](C)O)NC(=O)[C@H](CC(C)C)N(C)C(=O)[C@H](COC(C)(C)C)NC(=O)[C@H](Cc2c[nH]c3ccccc23)N(C)C(=O)[C@H](Cc2ccccc2)N(C)C1=O [pd107] ([NMeGABA][NMeL]I[NMeF][NMeW]S(tBu)[NMeL]T[NMeL][NMeL]D-Piperidide; lactam N-11)  0.17 ×10⁻⁶ cm/s
5. CC(C)C[C@@H]1NC(=O)[C@H](Cc2ccccc2)N(C)C(=O)[C@H]([C@@H](C)O)NC(=O)[C@H](Cc2ccccc2)NC(=O)[C@H](Cc2ccccc2)N(C)C(=O)C[C@@H](C(=O)N2CCCCC2)NC(=O)[C@H](C)N(C)C(=O)[C@H](CC(C)C)N(C)C(=O)CN(C)C(=O)[C@H](CC(C)C)N(C)C(=O)[C@H](Cc2ccccc2)N(C)C1=O [pd230] ([NMeF]FT[NMeF]L[NMeF][NMeL][Sar][NMeL][NMeA]D-Piperidide; lactam N-11)  0.25 ×10⁻⁶ cm/s
6. CC(C)C[C@@H]1NC(=O)[C@H](CC(C)C)N(C)C(=O)C[C@@H](C(=O)N2CCCCC2)NC(=O)[C@H](CC(C)C)N(C)C(=O)CN(C)C(=O)[C@H]([C@@H](C)O)NC(=O)[C@H](Cc2cscn2)N(C)C(=O)[C@H](Cc2ccccc2)N(C)C(=O)[C@H](Cc2ccccc2)NC(=O)[C@H](Cc2ccccc2)N(C)C(=O)[C@H](CC(C)C)N(C)C1=O [pd228] ([NMeL]L[NMeL][NMeF]F[NMeF][NMeAla(4-thiazolyl)]T[Sar][NMeL]D-Piperidide; lactam N-11)  0.58 ×10⁻⁶ cm/s
7. CC(C)C[C@H]1C(=O)N[C@@H](COC(C)(C)C)C(=O)N(C)[C@@H](Cc2ccccc2)C(=O)N(C)[C@@H](C(C)C)C(=O)N[C@H](C(=O)N2CCCCC2)CC(=O)N[C@H](C(C)C)C(=O)N(C)[C@@H](C)C(=O)N[C@@H](C(C)C)C(=O)N(C)[C@@H](CC(C)C)C(=O)N[C@@H](Cc2ccc(O)cc2)C(=O)N(C)CC(=O)N1C [pd121] ([dV][NMeA]V[NMeL]Y[Sar][NMeL]S(tBu)[NMeF][NMeV]D-Piperidide; lactam N-11)  1 ×10⁻⁶ cm/s
8. CC(C)C[C@H]1C(=O)N(C)[C@@H](CC(C)C)C(=O)N[C@@H](COC(C)(C)C)C(=O)N(C)[C@@H](C(C)C)C(=O)N[C@H](C(=O)N2CCCCC2)CC(=O)N(C)CC(=O)N(C)[C@@H](Cc2ccccc2)C(=O)N[C@@H](Cc2ccc(C(F)(F)F)cc2)C(=O)N(C)[C@@H](CC(C)C)C(=O)N[C@@H]([C@@H](C)O)C(=O)N(C)CC(=O)N1C [pd140] ([Sar][NMeF][Phe(4-CF3)][NMeL]T[Sar][NMeL][NMeL]S(tBu)[NMeV]D-Piperidide; lactam N-11)  2.5 ×10⁻⁶ cm/s
